The source of these data is patent publication US20070149588A1, “6-(2,3,6-Trifluorophenyl)triazolopyrimidines, their preparation and their use for controlling harmful fungi, and compositions comprising these compounds” (priority 2003, published 2007).

The assay concerns Botrytis cinerea. The assay is described as follows: Activity against gray mold on bell-pepper leaves caused by Botrytis cinerea, protective application. It is filed as in vivo. The note with it: 250 ppm, protective spray on bell-pepper seedlings cv. Neusiedler Ideal Elite, inoculated next day, assessed visually after 5 days; untreated plants 90% infected. How it is done:
The active compounds were prepared as a stock solution with 25 mg of active compound which was made up to 10 ml using a mixture of acetone and/or DMSO and the emulsifier Uniperol® EL (wetting agent having emulsifying and dispersing action based on ethoxylated alkylphenols) in a volume ratio of solvent/emulsifier of 99 to 1. The mixture was then made up with water to 100 ml. This stock solution was diluted with the solvent/emulsifier/water mixture described to the concentration of active compound stated below. Bell-pepper seedlings of the cultivar “Neusiedler Ideal Elite” were, after 2 to 3 leaves were well developed, sprayed to runoff point with an aqueous suspension having the concentration of active compound stated below. The next day, the treated plants inoculated with a spore suspension of Botrytis cinerea, which contained 1.7×10^6 spores/ml in a 2% aqueous biomalt solution. The test plants were then placed in a dark climatized chamber at 22 to 24° C. and high atmospheric humidity. After 5 days, the extent of the fungal infection on the leaves could be determined visually in %.
In the case of `COc1nc2ncnn2c(NC2CCCC2)c1-c1c(F)ccc(F)c1F` [I-2, 5-methoxy-6-(2,3,6-trifluorophenyl)-7-cyclopentylamino-1,2,4-triazolo[1,5a]pyrimidine], the “fungal infection on the leaves” value is “no infection”.
The result for `CC1CCCCN1c1c(-c2c(F)ccc(F)c2F)c(C#N)nc2ncnn12` (stereo not drawn) [I-1, 5-cyano-6-(2,3,6-trifluorophenyl)-7-(2-methylpiperidinyl)-1,2,4-triazolo[1,5a]pyrimidine] reads “no infection”; that for `Cc1nc2ncnn2c(N2CCCCC2C)c1-c1c(F)ccc(F)c1F` (stereo not drawn) [I-3, 5-methyl-6-(2,3,6-trifluorophenyl)-7-(2-methylpiperidinyl)-1,2,4-triazolo[1,5a]pyrimidine], “no infection”.
